According to patent US20170107179A1 (Tetraphase Pharmaceuticals, Inc., priority 2010, published 2017):
In brackets after ≈: the same amount, converted by molar mass. Where two headings read alike, the source gives them in different places.

Key:
H. influenzae HI551 = test: Rat lung infection model; format: in vivo; details: H. influenzae intratracheal
[1] = tested on: Viridans group streptococci; test: Broth microdilution MIC by tetracycline resistance phenotype (Table 10); format: cell-based; set-up: unit not given beside the values
[2] = tested on: Gram-negative respiratory pathogens; test: Broth microdilution MIC, respiratory pathogens; format: cell-based; details: generally
[3] = Non-GLP monkey pharmacokinetics; format: in vivo; details: cynomolgus monkeys; for half-life: read-out: T½ (converted)
Procedure: As a result of promising pharmacokinetic data in Sprague Dawley rats,^a Compound 102 was evaluated in 3 non-naîve cynomolgus monkeys. […] Nine to ten plasma samples were drawn for each dosing route up to 24 hours into heparin-coated vacutainer tubes. Dose formulations were verified with a 5-point calibration curve. The plasma concentration of the compound was quantified by LC/MS/MS using an internal standard. Quality control (QC) samples (low, medium, high; minimum of 6 standards with LLOQ<3 ng/mL) and standard curves (in duplicate) were included in the bioanalytical run. WinNonLin was used to determine individual and mean PK parameters±standard deviation (F, Cmax, Tmax, T½, CL, Vss, AUC(0-t), AUC(0-∞), and MRT).

[4] = tested on: Legionella pneumophila, 70 isolates, serogroups 1-6; test: microbe, parasite or virus in culture; format: cell-based
S. aureus Smith = test: Mouse systemic infection (septicemia) model, CD-1 mice; details: Staphylococcus aureus, in Mus musculus, 48 h
[5] = tested on: evaluated pathogens by tetracycline phenotype; test: Broth microdilution MIC by tetracycline phenotype (Table 14)
E. coli DH10B EC970 TetK = test: MIC, E. coli DH10B recombinantly expressing tetracycline-resistance gene; details: arabinose-induced, ampicillin in medium
[6] = tested on: subset of Gram-negative and Gram-positive isolates; test: Minimum bactericidal concentration (MBC), CLSI M26-A, selected strains (Table 11)
[7] = cynomolgus monkey, plasma, IV 1 mg/kg, average of 3
[8] = cynomolgus monkey, plasma, PO 10 mg/kg, average of 3
[9] = Enterococcus faecium, E. faecium, TET NS, N=40
[10] = Enterococcus faecium, E. faecium, TET S, N=60
[11] = Streptococcus agalactiae, S. agalactiae, TET NS, N=39
[12] = Streptococcus agalactiae, S. agalactiae, TET S, N=11
[13] = Streptococcus pneumoniae, S. pneumoniae, TET NS, N=46
[14] = Streptococcus pneumoniae, S. pneumoniae, TET S, N=54
[15] = Streptococcus pyogenes, S. pyogenes, TET S, N=44

With `CN(C)[C@@H]1C(O)=C(C(N)=O)C(=O)[C@@]2(O)C(O)=C3C(=O)c4c(O)c5c(c(F)c4C[C@H]3C[C@@H]12)CN(C(C)(C)C)C5` [Compound 102] the “log10 reduction in CFU versus the 72 hour untreated control, IV” value (H. influenzae HI551; 25 mg/kg IV at 5, 24 and 48 hours) was 3.40±0.31 log10, the “log10 reduction in CFU versus the 72 hour untreated control, oral” value (H. influenzae HI551; 100 mg/kg orally at 5, 24, 48 hours (FIG. 4)) was 2.93±0.27 log10 and the MIC50 ([1]; TET NS, n=32) was 0.12. It also gave an MIC90 ([1]; TET NS, n=32) of 0.25, an MIC50 ([1]; TET S, n=65) of 0.06 and an MIC90 ([1]; TET S, n=65) of 0.12. For the same compound, the “MICs, fold higher than those of tigecycline” value [2] was 2-4 fold, the AUC(0-inf) [3, 7] was 9310 ng·h/mL and the AUC(0-t) [3, 7] was 4850 ng·h/mL. It also gave a clearance [3, 7] of 1.86 mL/min/kg, a half-life [3, 7] of 23.3 h and a Vd ([3]; cynomolgus monkey, plasma, IV 1 mg/kg, average of 3, read-out: Vdss) of 3.4 L/kg. It also gave a bioavailability ([3]; cynomolgus monkey, plasma, PO 10 mg/kg vs IV 1 mg/kg) of 33.7%, an AUC(0-inf) [3, 8] of 35400 ng·h/mL and an AUC(0-t) [3, 8] of 16300 ng·h/mL. The Cmax [3, 8] was 1260 ng/mL, the Tmax [3, 8] was 4 h and the half-life [3, 8] was 24.8 h. It also gave a Co ([3]; IV 1 mg/kg, average of 3) of 3170 ng/mL, an MIC50 [4] of 2 µg/mL (≈ 3.78 µM) and an MIC90 [4] of 8 µg/mL (≈ 15.1 µM). For the same compound, the responders at 3 mg/kg (S. aureus Smith; iv, read-out: Percent survival at 48 hours, IV (3 mg/kg)) was 100%, the responders at 30 mg/kg (S. aureus Smith; po, read-out: Percent survival at 48 hours, PO (30 mg/kg)) was 83% and the “MICs, fold higher against tetracycline resistant isolates relative to tetracycline susceptible isolates” value [5] was 2-4 fold. For the same compound, the MIC50 [5, 9] was 0.25 µg/mL (≈ 0.472 µM), the MIC90 [5, 9] was 0.5 µg/mL (≈ 0.944 µM) and the MIC50 [5, 10] was 0.12 µg/mL (≈ 0.227 µM). For the same compound, the MIC90 [5, 10] was 0.12 µg/mL (≈ 0.227 µM), the MIC50 ([5]; F. faecalis, TET NS, N=71) was 0.5 µg/mL (≈ 0.944 µM) and the MIC90 ([5]; F. faecalis, TET NS, N=71) was 1 µg/mL (≈ 1.89 µM). The MIC50 ([5]; F. faecalis, TET S, N=30) was 0.12 µg/mL (≈ 0.227 µM), the MIC90 ([5]; F. faecalis, TET S, N=30) was 0.25 µg/mL (≈ 0.472 µM) and the MIC50 [5, 11] was 0.5 µg/mL (≈ 0.944 µM). It also gave an MIC90 [5, 11] of 0.5 µg/mL (≈ 0.944 µM), an MIC50 [5, 12] of 0.12 µg/mL (≈ 0.227 µM) and an MIC90 [5, 12] of 0.12 µg/mL (≈ 0.227 µM). For the same compound, the MIC50 [5, 13] was 0.12 µg/mL (≈ 0.227 µM), the MIC90 [5, 13] was 0.12 µg/mL (≈ 0.227 µM) and the MIC50 [5, 14] was 0.06 µg/mL (≈ 0.113 µM). It also gave an MIC90 [5, 14] of 0.12 µg/mL (≈ 0.227 µM), an MIC50 ([5]; Streptococcus pyogenes, S. pyogenes, TET NS, N=6) of 0.25 µg/mL (≈ 0.472 µM) and an MIC50 [5, 15] of 0.12 µg/mL (≈ 0.227 µM). For the same compound, the MIC90 [5, 15] was 0.12 µg/mL (≈ 0.227 µM), the “MIC EC970 TetK” value (E. coli DH10B EC970 TetK) was 0.5 and the “evaluated isolates with MBC:MIC ratio >2” value [6] was 89.3%. The “mode of action from MBC:MIC ratios” value [6] was “bacteriostatic mode of action”, the “MBC:MIC” value ([6]; Acinetobacter lwoffii isolate 2919857) was 4 and the “MBC:MIC” value ([6]; Acinetobacter lwoffii isolate 2919860) was 128. The “MBC:MIC” value ([6]; Acinetobacter lwoffii isolate 2919873) was 1, the “MBC:MIC” value ([6]; Acinetobacter lwoffii isolate 2919875) was 4 and the “MBC:MIC” value ([6]; Enierobacter cloacae isolate 2920082) was 4. The “MBC:MIC” value ([6]; Enterobacter aerogenes isolate 2919897) was 2, the “MBC:MIC” value ([6]; Enterobacter aerogenes isolate 2919900) was 8 and the “MBC:MIC” value ([6]; Enterobacter aerogenes isolate 2919909) was 4. For the same compound, the “MBC:MIC” value ([6]; Enterobacter aerogenes isolate 2919913) was 16, the “MBC:MIC” value ([6]; Enterobacter cloacae isolate 2920072) was 2 and the “MBC:MIC” value ([6]; Enterobacter cloacae isolate 2920119) was 1. For the same compound, the “MBC:MIC” value ([6]; Escherichia coli isolate 2921525) was over 16, the “MBC:MIC” value ([6]; Escherichia coli isolate 2921576) was 8 and the “MBC:MIC” value ([6]; Klebsiella oxytoca isolate 2919956) was 8. For the same compound, the “MBC:MIC” value ([6]; Klebsiella oxytoca isolate 2919964) was 4, the “MBC:MIC” value ([6]; Klebsiella oxytoca isolate 2919972) was 2 and the “MBC:MIC” value ([6]; Klebsiella oxytoca isolate 2919983) was 8. The “MBC:MIC” value ([6]; Klebsiella pneumonia isolate 2921528) was over 8, the “MBC:MIC” value ([6]; Klebsiella pneumoniae isolate 2921529) was over 8 and the “MBC:MIC” value ([6]; Morganella morganii isolate 2919931) was over 4. For the same compound, the “MBC:MIC” value ([6]; Morganella morganii isolate 2919935) was over 4, the “MBC:MIC” value ([6]; Morganella morganii isolate 2919945) was over 2 and the “MBC:MIC” value ([6]; Proteus vulgaris isolate 2919822) was over 1. The “MBC:MIC” value ([6]; Proteus vulgaris isolate 2919827) was over 2, the “MBC:MIC” value ([6]; Proteus vulgaris isolate 2919835) was over 4 and the “MBC:MIC” value ([6]; Proteus vulgaris isolate 2919836) was 4. For the same compound, the “MBC:MIC” value ([6]; Salmonella species isolate 2919986) was 4, the “MBC:MIC” value ([6]; Salmonella species isolate 2919990) was 4 and the “MBC:MIC” value ([6]; Salmonella species isolate 2920006) was 4. The “MBC:MIC” value ([6]; Salmonella species isolate 2920008) was 4, the “MBC:MIC” value ([6]; Serratia marcescens isolate 2920092) was 4 and the “MBC:MIC” value ([6]; Serratia marcescens isolate 2920094) was over 4. For the same compound, the “MBC:MIC” value ([6]; Serratia marcescens isolate 2920100) was 2, the “MBC:MIC” value ([6]; Serratia marcescens isolate 2920109) was 4 and the “MBC:MIC” value ([6]; Shigella species isolate 2919892) was 4. For the same compound, the “MBC:MIC” value ([6]; Shigella species isolate 2919894) was 16, the “MBC:MIC” value ([6]; Shigella species isolate 2920018) was 2 and the “MBC:MIC” value ([6]; Shigella species isolate 2920026) was 32. For the same compound, the “MBC:MIC” value ([6]; Shigella species isolate 2920028) was 8, the “MBC:MIC” value ([6]; Staphylococcus aureus isolate 2919648) was over 16 and the “MBC:MIC” value ([6]; Staphylococcus aureus isolate 2919649) was over 16. The “MBC:MIC” value ([6]; Staphylococcus aureus isolate 2919650) was over 16, the “MBC:MIC” value ([6]; Stenotrophomonas maltophilia isolate 2920035) was over 8 and the “MBC:MIC” value ([6]; Stenotrophomonas maltophilia isolate 2920051) was 8. The “MBC:MIC” value ([6]; Streptococcus anginosus isolate 2919722) was 8, the “MBC:MIC” value ([6]; Streptococcus anginosus isolate 2919742) was 16 and the “MBC:MIC” value ([6]; Streptococcus anginosus isolate 2919797) was 8. For the same compound, the “MBC:MIC” value ([6]; Streptococcus intermedius isolate 2919756) was 16, the “MBC:MIC” value ([6]; Streptococcus intermedius isolate 2919759) was 64 and the “MBC:MIC” value ([6]; Streptococcus intermedius isolate 2919784) was 16. The “MBC:MIC” value ([6]; Streptococcus intermedius isolate 2919819) was 4, the “MBC:MIC” value ([6]; Streptococcus mitis isolate 2919763) was 4 and the “MBC:MIC” value ([6]; Streptococcus mitis isolate 2919781) was 1. For the same compound, the “MBC:MIC” value ([6]; Streptococcus mitis isolate 2919798) was 1, the “MBC:MIC” value ([6]; Streptococcus mitis isolate 2919803) was 8 and the “MBC:MIC” value ([6]; Streptococcus sanguis isolate 2919749) was 4. The “MBC:MIC” value ([6]; Streptococcus sanguis isolate 2919752) was 2 and the “MBC:MIC” value ([6]; Streptococcus sanguis isolate 2919758) was 16.
